11 compounds from patent publication US8629166B2, “5-cycloalkyl- or 5-heterocyclyl-nicotinamides” (Hoffmann-La Roche Inc., priority 2011, dated 2014) can be followed below.

pEC50: −log10 of the molar value.

The target in one experiment is T1, human CB1 receptor (Homo sapiens, UniProt P21554).
T1 construct: expressed in transfected cells; host or cells: human embryonic kidney (HEK) cells, Semliki Forest Virus system, membrane preparation
Description: CB1 receptor affinity ([3H]-CP-55,940 displacement, HEK cell membranes). In kind it is binding. The following applies: displacement of [3H]-CP-55,940 at 10 μM. The procedure: (§1) CB1 and CB2 Receptor Affinity
(§2) The affinity of the compounds of the invention for cannabinoid receptors was determined using membrane preparations of human embryonic kidney (HEK) cells in which the human CB1 receptor is transiently transfected using a Semliki Forest Virus system in conjunction with [3H]-CP-55,940 as radioligand. After incubation of freshly prepared cell membrane preparation with the [^3H]-ligand, with or without addition of compounds of the invention, separation of bound and free ligand was performed by filtration over glass fiber filters. Radioactivity on the filter was measured by scintillation counting.
(§3) The ability of the compounds to displace the radioligand [^3H]-CP-55,940 was measured at a concentration of 10 μM and values provided as [% inhibition @ 10 μM] both for the CB1 and CB2 receptor assay, The lower % inhibition is, the lower the likelihood of side effects based on CB1 or CB2 receptor inhibition is.

In the next experiment the test system is ABCA1 protein. The experiment in a line: Detection of upregulation of ABCA1 protein in cells (ApoA-I binding, high content image analysis). Type of experiment: cell-based. The conditions noted are these: THP-1 macrophage cells; for % increase of ABCA1 at 3 μM: compound at 3 μM, 24 hrs; for pEC50: ABCA1 protein increasing efficacy. The procedure:
Detection of Upregulation of ABCA1 Protein in Cells
The ability of compounds of the invention to increase the level of ABCA1 protein is determined in replicate cultures of THP-1 macrophage cells in 96-well microplates. Cells are plated at an initial density of 100,000 cells/well in 100 μl medium and differentiated to adherent macrophages with the addition of PMA (100 nM) for 68 hrs in 10% fetal bovine serum, 3 μl/L of b-mercaptoethanol, RPMI-1640 medium. Then, cells are incubated with RPMI-1640 medium containing 1% FCS, 25 μg/ml acetylated LDL, for 24 hours at 37° C. Following incubation with acetylated LDL, cells are washed twice with 50 μl PBS and incubated with 100 μl of RPMI-1640 medium containing the compound of interest solubilized in DMSO for an additional 24 hrs. The final DMSO concentration in presence of cells is maintained at 0.5%. ApoA-I binding assay using High Content Image Analysis is initiated by replacing with fresh medium, RPMI without Phenol Red, 0.2% BSA containing AlexaFluor®647 labeled ApoA-I for 2 h/37° C./5% CO2. Then, cells are fixed with 4% Formaldehyde in PBS (15 min, RT). Following Nuclei are stained with Hoechst solution (3 μM PBS) and Cytoplasm with Cell Mask Blue (2 μg/ml PBS), 15 min, RT. Finally the stained cells are fixed with a second round of formaldehyde treatment. Fixed stained cells are washed and kept in PBS at 4° C. and can be read immediately until one month after preparation.
The Alexa Fluor 647-labeled Apolipoprotein A-I (20 nM) was prepared as follows: Human recombinant Apolipoprotein A-I (ApoA-I) was exchanged to a buffer of 0.02 M NaHCO3 at pH 8.2 on an NAP desalting column (GE Healthcare) and brought to a concentration to 40 μM (1.13 mg/ml) by adjustment with the same buffer. The ApoA-I was fluorescently labeled by incubation with Alexa Fluor carboxylic acid succimidyl ester (Alexa Fluor 647, Invitrogen A-20006) at a 2:1 molar ratio (Alexa to ApoA-I) for 1 h under shaking at RT. The remaining unconjugated label was removed by buffer exchange to 0.02M NaHCO3 at pH 8.2.
Imaging and data collection were performed on an OPERA confocal microplate imaging reader using a 20× water immersion objective and UV360 or 405 laser to identify the cell nuclei and a 635 laser to identify the fluorescent ApoA-I. Eight fields of view are captured per well. Image capture and analysis was performed with the Acapella software. Background fluorescence detected in control wells without ApoA-I was subtracted.
Using XLfit3 program (ID Business Solutions Ltd. UK), the model 205 for Dose Response One Site is used to calculate the EC50 values. […] Particularly, the compounds of the present invention have EC50 values in a range of 0.1 μM to 3 μm.

In the next experiment the target is T2, human CB2 receptor (Homo sapiens, UniProt P34972).
T2 construct: expressed in transfected cells; host or cells: human embryonic kidney (HEK) cells, Semliki Forest Virus system, membrane preparation
Description: CB2 receptor affinity ([3H]-CP-55,940 displacement, HEK cell membranes). Type of experiment: binding. The conditions noted are these: displacement of [3H]-CP-55,940 at 10 μM. The protocol: as §1
as §2, with “cannabinoid CB2” for “cannabinoid”, “CB2” for “CB1”, “[^3H]-CP-55,940” for “[3H]-CP-55,940”
as §3
(Loss of bound radioactivity is the signal in a displacement assay; it reports binding, not function.)

T2 sequence (P34972 whole entry): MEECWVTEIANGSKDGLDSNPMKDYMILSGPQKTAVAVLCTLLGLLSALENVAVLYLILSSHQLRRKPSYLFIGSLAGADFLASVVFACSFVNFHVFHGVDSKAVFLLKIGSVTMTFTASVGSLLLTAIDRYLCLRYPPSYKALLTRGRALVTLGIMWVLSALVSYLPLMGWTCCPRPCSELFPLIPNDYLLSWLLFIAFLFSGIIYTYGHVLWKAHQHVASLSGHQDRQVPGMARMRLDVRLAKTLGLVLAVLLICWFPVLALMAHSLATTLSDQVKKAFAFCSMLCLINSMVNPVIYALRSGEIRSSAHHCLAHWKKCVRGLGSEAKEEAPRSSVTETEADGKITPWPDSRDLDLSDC
T1 sequence (P21554 whole entry): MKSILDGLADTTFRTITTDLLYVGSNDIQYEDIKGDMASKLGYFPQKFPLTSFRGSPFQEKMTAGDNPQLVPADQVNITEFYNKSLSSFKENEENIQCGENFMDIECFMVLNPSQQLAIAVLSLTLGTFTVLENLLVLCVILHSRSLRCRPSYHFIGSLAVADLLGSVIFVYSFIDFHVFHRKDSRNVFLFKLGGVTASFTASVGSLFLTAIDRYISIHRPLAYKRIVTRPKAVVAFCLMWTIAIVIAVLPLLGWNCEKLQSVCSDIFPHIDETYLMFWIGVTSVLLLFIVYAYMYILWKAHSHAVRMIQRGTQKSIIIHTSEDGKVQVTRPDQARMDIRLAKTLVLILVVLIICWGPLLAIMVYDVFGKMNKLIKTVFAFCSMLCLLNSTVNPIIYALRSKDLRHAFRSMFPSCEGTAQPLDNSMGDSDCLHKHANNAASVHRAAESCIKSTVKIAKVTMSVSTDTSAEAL

Consider `O=C(NCc1ccn(CC2CC2)n1)c1cnc(OCC(F)(F)F)c(C2CCCC2)c1` [Example 17, 5-cyclopentyl-N-(1-cyclopropylmethyl-1H-pyrazol-3-ylmethyl)-6-(2,2,2-trifluoro-ethoxy)-nicotinamide], for which the “CB1 receptor affinity [% inhibition @ 10 μM]” value at human CB1 receptor is given as 25 % inhibition. In addition, the “% increase of ABCA1 at 3 μM” value in the experiment on ABCA1 protein is given as over 45% @ 3 μM. Moreover, the “CB2 receptor affinity [% inhibition @ 10 μM]” value at human CB2 receptor was 9 % inhibition.

For the compound `O=C(NCc1ccn(CC2CC2)n1)c1cnc(OCC(F)(F)F)c(C2CCCCC2)c1` [Example 15, 5-cyclohexyl-N-(1-cyclopropylmethyl-1H-pyrazol-3-ylmethyl)-6-(2,2,2-trifluoro-ethoxy)-nicotinamide], the “CB1 receptor affinity [% inhibition @ 10 μM]” value on human CB1 receptor turned out to be 49 % inhibition. In the experiment on ABCA1 protein, the “% increase of ABCA1 at 3 μM” value was over 45% @ 3 μM. Moreover, on human CB2 receptor, the “CB2 receptor affinity [% inhibition @ 10 μM]” value is reported as 14 % inhibition.

For orientation: pEC50 means −log10 of the EC50, conventionally taken in molar units. Read a low pEC50 as a large EC50. As for `O=C(NCc1nc(C(F)(F)F)no1)c1cnc(OCC(F)(F)F)c(C2CCCCC2)c1` [Example 4, 5-cyclohexyl-6-(2,2,2-trifluoro-ethoxy)-N-(3-trifluoromethyl-[1,2,4]oxadiazol-5-ylmethyl)-nicotinamide], the “CB1 receptor affinity [% inhibition @ 10 μM]” value on human CB1 receptor was 31 % inhibition. In the experiment on ABCA1 protein, this compound gave a negative-log EC50 (pEC50) of 6.82. In addition, at human CB2 receptor, the “CB2 receptor affinity [% inhibition @ 10 μM]” value is recorded as 2 % inhibition.

As to `O=C(Nc1cccnn1)c1cnc(OCC(F)(F)F)c(C2CCCC2)c1` [Example 9, 5-cyclopentyl-N-pyridazin-3-yl-6-(2,2,2-trifluoro-ethoxy)-nicotinamide], the “CB1 receptor affinity [% inhibition @ 10 μM]” value on human CB1 receptor is given as 7 % inhibition. In the experiment on ABCA1 protein, this compound had a pEC50 of 5.00. In addition, the “CB2 receptor affinity [% inhibition @ 10 μM]” value on human CB2 receptor is listed as 9 % inhibition.

For `O=C(Nc1ccccn1)c1cnc(OCC(F)(F)F)c(C2CCCC2)c1` [Example 10, 5-cyclopentyl-N-pyridin-2-yl-6-(2,2,2-trifluoro-ethoxy)-nicotinamide], the “CB1 receptor affinity [% inhibition @ 10 μM]” value at human CB1 receptor was 9 % inhibition. In the experiment with ABCA1 protein, the pEC50 was 6.00. The “CB2 receptor affinity [% inhibition @ 10 μM]” value at human CB2 receptor is listed as −9 % inhibition.

Turning to `O=C(NCc1nc(C(F)(F)F)no1)c1cnc(OCC(F)(F)F)c(C2CCCC2)c1` [Example 11, 5-cyclopentyl-6-(2,2,2-trifluoro-ethoxy)-N-(3-trifluoromethyl-[1,2,4]oxadiazol-5-ylmethyl)-nicotinamide], at human CB1 receptor, the “CB1 receptor affinity [% inhibition @ 10 μM]” value stood at 29 % inhibition. The “% increase of ABCA1 at 3 μM” value in the experiment with ABCA1 protein was over 45% @ 3 μM. Further, the “CB2 receptor affinity [% inhibition @ 10 μM]” value at human CB2 receptor is recorded as −3 % inhibition.

Consider `O=C(Nc1ccncn1)c1cnc(OCC(F)(F)F)c(C2CCCC2)c1` [Example 23, 5-cyclopentyl-N-pyrimidin-4-yl-6-(2,2,2-trifluoro-ethoxy)-nicotinamide], for which the “CB1 receptor affinity [% inhibition @ 10 μM]” value on human CB1 receptor turned out to be 31 % inhibition. Also, the “% increase of ABCA1 at 3 μM” value in the experiment with ABCA1 protein was over 45% @ 3 μM. Besides, the “CB2 receptor affinity [% inhibition @ 10 μM]” value on human CB2 receptor is −3 % inhibition.

On to `COc1cc(CNC(=O)c2cnc(OCC(F)(F)F)c(C3CCCCC3)c2)on1` [Example 13, 5-cyclohexyl-N-(3-methoxy-isoxazol-5-ylmethyl)-6-(2,2,2-trifluoro-ethoxy)-nicotinamide], for which the “CB1 receptor affinity [% inhibition @ 10 μM]” value on human CB1 receptor turned out to be 45 % inhibition. For the same compound, in the experiment with ABCA1 protein, the “% increase of ABCA1 at 3 μM” value is over 45% @ 3 μM. The “CB2 receptor affinity [% inhibition @ 10 μM]” value at human CB2 receptor was 5 % inhibition.

For the compound `O=C(Nc1cnccn1)c1cnc(OCC(F)(F)F)c(C2CCCCC2)c1` [Example 27, 5-cyclohexyl-N-pyrazin-2-yl-6-(2,2,2-trifluoro-ethoxy)-nicotinamide], the “CB1 receptor affinity [% inhibition @ 10 μM]” value on human CB1 receptor stood at 18 % inhibition. Moreover, the “% increase of ABCA1 at 3 μM” value in the experiment with ABCA1 protein is over 45% @ 3 μM. For the same compound, the “CB2 receptor affinity [% inhibition @ 10 μM]” value on human CB2 receptor is given as 11 % inhibition.

In the case of `O=C(Nc1cccnc1)c1cnc(OCC(F)(F)F)c(C2=CCCCC2)c1` [Example 1, 5-cyclohex-1-enyl-N-pyridin-3-yl-6-(2,2,2-trifluoro-ethoxy)-nicotinamide], the “CB1 receptor affinity [% inhibition @ 10 μM]” value at human CB1 receptor was determined as 33 % inhibition. In the experiment on ABCA1 protein, this compound had a negative logarithm of the EC50 (pEC50) of 6.29. Besides, the “CB2 receptor affinity [% inhibition @ 10 μM]” value on human CB2 receptor is given as 5 % inhibition.

For the compound `N#Cc1ccc(NC(=O)c2cnc(OCC(F)(F)F)c(C3CCCCC3)c2)cc1` [Example 24, N-(4-cyano-phenyl)-5-cyclohexyl-6-(2,2,2-trifluoro-ethoxy)-nicotinamide], the “CB1 receptor affinity [% inhibition @ 10 μM]” value on human CB1 receptor stood at 10 % inhibition. For the same compound, the “% increase of ABCA1 at 3 μM” value in the experiment with ABCA1 protein is on record as over 45% @ 3 μM. Also, the “CB2 receptor affinity [% inhibition @ 10 μM]” value on human CB2 receptor is recorded as −17 % inhibition.
